Test results reported in patent US20120058953A1, “COMPOSITIONS AND METHODS FOR ENHANCING APOPTOSIS” (Genentech, Inc., priority 2003, published 2012).
Where two headings read alike, the source gives them in different places. Each block holds one molecule with its values, some of them ahead of it. Non-standard residues stand in square brackets, D forms with d. Residues, ends and D or L forms follow the SMILES beside them. No end group written: not given here. Phe(4-SO3H) = N[C@@H](Cc1ccc(S(=O)(=O)O)cc1)C(=O)O; Phe(4-I) = N[C@@H](Cc1ccc(I)cc1)C(=O)O; Phe(ol) = N[C@H](CO)Cc1ccccc1

Key:
[1] = biological target: T1, XIAP-BIR3 (Homo sapiens, UniProt P98170); experiment: fluorescence polarization competition assay, XIAP-BIR3; format: binding
T1 construct: X-IAP BIR3 (amino acids residues 241-356); made in house; host or cells: Escherichia coli BL21 (DE3)
T1 sequence (P98170 241-356): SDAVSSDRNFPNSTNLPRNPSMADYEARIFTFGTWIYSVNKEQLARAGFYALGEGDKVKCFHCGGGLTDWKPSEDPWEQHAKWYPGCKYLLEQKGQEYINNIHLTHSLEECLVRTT
Description: (§1) The apparent Kd values can be determined from the EC50 values.
(§2) The vectors pET15b-XIAPBIR2C202AC218G, pET15b-XIAPBIR3, and pET15b-MLIAPBIR were introduced into Escherichia coli strain BL21 (DE3). Overnight cultures were diluted 1:100 and grown at 30° C. in LB media with […] to an A600 of 0.5-0.7 with vigorous shaking. Isopropyl b-D-thiogalactoside (IPTG) was added to a final concentration of 1 mM and cultures were grown for 4 hours at 30° C. One litre of frozen cell pellet was resuspended in 100 ml Buffer A (50 mM Tris [pH 8.0], 300 mM NaCl, 5 mM b-mercaptoethanol, 0.5 mM PMSF, 2 mM benzamidine) with 5 mM imidazole and placed on ice for 30 minutes. Cells were lysed by homogenizing followed by repeated passes through a microfluidizer. Lysate was cleared by centrifugation at 15,000 rpm for 30 minutes. The supernatant was loaded onto a Ni-agarose column (Qiagen), washed with 10 column volumes Buffer A with 10 mM imidazole, and eluted with 10 column volumes Buffer A with 300 mM imidazole. Fractions containing BIR protein were pooled. Final concentrations of 5 mM DTT and 100 mM zinc acetate were added. The pool was concentrated and loaded on a Superdex 75™ (Pharmacia) sizing column. Protein eluted over one column volume into 50 mM Tris 8.0, 300 mM NaCl, 0.5 mM PMSF, 2 mM benzamidine, 5 mM DTT, 50 mM zinc acetate, 1 mM sodium azide. Fractions containing BIR protein were pooled and dialyzed against 4 changes of buffer containing 50 mM Tris (pH 8.0), 120 mM NaCl, 5 mM DTT, 0.5 mM PMSF, 2 mM benzamidine, 50 mM zinc acetate, 1 mM sodium azide. Protein was concentrated and stored at −80° C. for further characterization.
(§3) The apparent Kd values were determined from the EC50 values. […] Samples were read after a 10-minute incubation.

[2] = biological target: T2, XIAP-BIR2 (Homo sapiens, UniProt P98170, C202A/C213G); experiment: fluorescence polarization competition assay, XIAP-BIR2; format: binding
T2 construct: X-IAP BIR2 (amino acid residues 124-240 with mutations C202A and C213G); made in house; host or cells: Escherichia coli BL21 (DE3)
T2 sequence (P98170 124-240 C202A/C213G): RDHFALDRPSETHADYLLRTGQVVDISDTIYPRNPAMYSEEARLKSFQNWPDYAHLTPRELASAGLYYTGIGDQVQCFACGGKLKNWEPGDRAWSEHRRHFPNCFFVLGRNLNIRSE
Description: as §1, §2, §3

[3] = biological target: T3, ML-IAP-BIR (Homo sapiens, UniProt Q96CA5); experiment: fluorescence polarization competition assay, ML-IAP-BIR; format: binding
T3 construct: made in house; host or cells: Escherichia coli BL21 (DE3)
T3 sequence (Q96CA5 63-179): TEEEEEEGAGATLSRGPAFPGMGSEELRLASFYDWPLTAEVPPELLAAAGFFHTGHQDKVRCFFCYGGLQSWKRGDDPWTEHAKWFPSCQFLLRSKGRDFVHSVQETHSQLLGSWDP
Description: as §1, §2, §3

[4] = biological target: T4, XIAP-BIR2 (human, UniProt P98170 124-240); experiment: fluorescence polarization competition, SMAC-FAM probe
T4 construct: range 124-240; The text says C213G, the vector name reads pET15b-XIAPBIR2C202AC218G; Expressed in E. coli from pET15b
T4 sequence (P98170 124-240 C202A/C213G limits assumed): as the sequence (P98170 124-240 C202A/C213G) above

[5] = biological target: T5, XIAP-BIR3 (human, UniProt P98170 241-356); experiment: as above
T5 construct: range 241-356; Expressed in E. coli from pET15b and purified on Ni-agarose
T5 sequence (P98170 241-356 limits assumed): as the sequence (P98170 241-356) above

[6] = biological target: T6, ML-IAP-BIR (human, UniProt Q96CA5 63-179); experiment: as above
T6 construct: range 63-179; Expressed in E. coli from pET15b and purified on Ni-agarose; also called BIR domain of ML-IAP
T6 sequence (looked up): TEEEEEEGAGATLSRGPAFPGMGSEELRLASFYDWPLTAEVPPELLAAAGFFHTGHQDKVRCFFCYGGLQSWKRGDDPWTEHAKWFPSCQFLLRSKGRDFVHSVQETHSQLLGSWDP

[7] = biological target: T5, XIAP-BIR3; experiment: fluorescence polarization competition, SMAC-FAM or Hid-FAM probe
Description: (§4) The Kᵢ values for the mutant peptides relative to the Kᵢ of [sequence]

[8] = biological target: T4, XIAP-BIR2; experiment: as above
Description: as §4

[9] = biological target: T6, ML-IAP-BIR; experiment: as above
Description: as §4

[10] = biological target: T5, XIAP-BIR3; experiment: fluorescence polarization competition, SMAC-FAM probe; remark: listed apart in the source
[11] = biological target: T6, ML-IAP-BIR; experiment: as above; remark: listed apart in the source
[12] = tested on: U87MG glioma cells; conditions: athymic mice; Fulda et al. (2002); cited from earlier work
[13] = Table 4, P4 amino acid/phenylethylamine scan, Hid-FAM probe

Ki [3, 13]: 1500 nM
Molecule: CC(C)[C@H](NC(=O)[C@H](C)N)C(=O)N1CCC[C@H]1C(=O)N[C@@H](CO)[C@@H](O)c1ccccc1 [AVPX25]

Ki [3, 13]: 1900 nM
Molecule: CC(C)[C@H](NC(=O)[C@H](C)N)C(=O)N1CCC[C@H]1C(=O)NCCc1cccc(C(F)(F)F)c1 [AVPX26]

Ki [3, 13]: 410 nM
Molecule: CC(C)[C@H](NC(=O)[C@H](C)N)C(=O)N1CCC[C@H]1C(=O)N[C@H](CO)[C@H](O)c1ccccc1 [AVPX27]

Ki [1, 13]: 7600 nM | Ki [3, 13]: 850 nM
Molecule: CC(C)[C@H](NC(=O)[C@H](C)N)C(=O)N1CCC[C@H]1C(=O)N[C@@H]1C[C@H]1c1ccccc1 [AVPX28a]

Ki [1, 13]: 1400 nM | Ki [3, 13]: 1000 nM
Molecule: CC(C)[C@H](NC(=O)[C@H](C)N)C(=O)N1CCC[C@H]1C(=O)N[C@H]1C[C@@H]1c1ccccc1 [AVPX28b]

Ki [3, 13]: 270 nM
Molecule: CC(CNC(=O)[C@@H]1CCCN1C(=O)[C@@H](NC(=O)[C@H](C)N)C(C)C)c1ccccc1 (stereo partly shown) [AVPX31]

Ki [1, 13]: 390 nM | Ki [3, 13]: 90 nM | Ki [2, 13]: 441000 nM
Molecule: CC(C)[C@H](NC(=O)[C@H](C)N)C(=O)N1CCC[C@H]1C(=O)N[C@H](CO)Cc1ccccc1 [AVPX32] (H-AVP[Phe(ol)]; N-terminus assumed)

Ki [3, 13]: 310 nM
Molecule: CC(C)[C@H](NC(=O)[C@H](C)N)C(=O)N1CCC[C@H]1C(=O)NC[C@H](O)c1ccccc1 [AVPX33]

Ki [3, 13]: 780 nM
Molecule: CCOc1cccc(CCNC(=O)[C@@H]2CCCN2C(=O)[C@@H](NC(=O)[C@H](C)N)C(C)C)c1 [AVPX34]

Ki [3, 13]: 1300 nM
Molecule: COc1ccc(Br)cc1CCNC(=O)[C@@H]1CCCN1C(=O)[C@@H](NC(=O)[C@H](C)N)C(C)C [AVPX36]

Ki [3, 13]: 870 nM
Molecule: CC(C)[C@H](NC(=O)[C@H](C)N)C(=O)N1CCC[C@H]1C(=O)NCCc1cccc(F)c1 [AVPX37]

Ki [3, 13]: 150 nM
Molecule: COC[C@H](Cc1ccccc1)NC(=O)[C@@H]1CCCN1C(=O)[C@@H](NC(=O)[C@H](C)N)C(C)C [AVPX38]

Ki [3, 13]: 680 nM
Molecule: CC(C)[C@H](NC(=O)[C@H](C)N)C(=O)N1CCC[C@H]1C(=O)NCCc1cccc(Cl)c1 [AVPX39]

Ki [3, 13]: 300 nM
Molecule: CCOc1ccccc1CCNC(=O)[C@@H]1CCCN1C(=O)[C@@H](NC(=O)[C@H](C)N)C(C)C [AVPX40]

More lines, now with the values behind:

Molecule: CC(C)[C@H](NC(=O)[C@H](C)NC(=O)[C@H](CCC(=O)O)NC(=O)[C@H](C)N)C(=O)N1CCC[C@H]1C(=O)N[C@@H](Cc1c[nH]c2ccccc12)C(=O)N[C@@H](CCCCN)C(=O)N[C@@H](CO)C(=O)N[C@@H](CCC(=O)O)C(=O)O
Ki [1]: > 64000 nM | Ki [2]: 3600 nM

Molecule: CC(C)[C@H](NC(=O)[C@H](C)NC(=O)[C@H](CCC(N)=O)NC(=O)[C@H](C)N)C(=O)N[C@@H](C)C(=O)N[C@@H](Cc1c[nH]c2ccccc12)C(=O)N[C@@H](CCCCN)C(=O)N[C@@H](CO)C(=O)N[C@@H](CCC(=O)O)C(=O)O
Ki [3]: 7000 nM

Molecule: CC(C)[C@H](NC(=O)[C@H](C)N)C(=O)NCC(=O)N[C@H](C(=O)N1CCC[C@H]1C(=O)N[C@@H](Cc1c[nH]c2ccccc12)C(=O)N[C@@H](CCCCN)C(=O)N[C@@H](CO)C(=O)N[C@@H](CCC(=O)O)C(=O)O)C(C)C
Ki [3]: 6000 nM

Molecule: CC[C@H](C)[C@H](NC(=O)[C@H](Cc1c[nH]c2ccccc12)NC(=O)[C@@H]1CCCN1C(=O)[C@@H](NC(=O)[C@H](C)N)C(C)C)C(=O)NCC(=O)N[C@@H](CCCCN)C(=O)N[C@@H](CO)C(=O)N[C@@H](CCC(=O)O)C(=O)O
Ki [3]: 330 nM

Molecule: CC(C)[C@H](NC(=O)[C@H](C)N)C(=O)N1CCC[C@H]1C(=O)N[C@@H](Cc1ccccc1)C(=O)O [AVPF] (H-AVPF-OH; N-terminus assumed)
Ki [3, 13]: 90 nM

Molecule: CC[C@H](C)[C@H](NC(=O)[C@@H]1CCCN1C(=O)[C@@H](NC(=O)[C@H](C)N)C(C)C)C(=O)O [AVPI]
Ki [3, 13]: 330 nM

Molecule: CC(C)[C@H](NC(=O)[C@H](C)N)C(=O)N1CCC[C@H]1C(=O)NCC(c1ccccc1)c1ccccc1 [AVPX24]
Ki [3, 13]: 30 nM

Molecule: AEAVAWKSE
Ki [1]: > 64000 nM | Ki [3]: 9300 nM | Ki [2]: 2500 nM

Molecule: AIPFEEKSE
Ki [1]: 590 nM | Ki [3]: 440 nM | Ki [2]: 8700 nM

Molecule: ATAVIEKSE
Ki [1]: > 64000 nM | Ki [3]: 4300 nM | Ki [2]: 5700 nM

Molecule: AVPWGLKSE
Ki [1]: 540 nM | Ki [3]: 420 nM | Ki [2]: 6900 nM

Molecule: AIPFEEKSE
Ki [4]: 8700 nM | Ki [5]: 590 nM | Ki [6]: 440 nM

Molecule: AVGVPWKSE
Ki [6]: 6000 nM

Molecule: AVP[Phe(4-SO3H)]AQKSE [AVPX2AQKSE]
Ki [7]: 8500 nM

Molecule: AVPXAQKSE (X7 at position 4 is cyclopentylalanine) [AVPX7AQKSE]
Ki [8]: 229000 nM | Ki [9]: 7900 nM

Molecule: ATAVIEKSE
fold weaker than the SMAC-based peptide [10]: > 100 fold | fold specificity for ML-IAP-BIR relative to XIAP-BIR3 [11]: > 10 fold | fold weaker than the SMAC-based peptide [11]: ~10 fold | Ki [4]: 5700 nM | Ki [6]: 4300 nM

Molecule: AEAVAWKSE
fold weaker than the SMAC-based peptide [10]: > 100 fold | fold specificity for ML-IAP-BIR relative to XIAP-BIR3 [11]: > 10 fold | fold weaker than the SMAC-based peptide [11]: ~10 fold | Ki [4]: 2500 nM | Ki [6]: 9300 nM

Molecule: AQAVAWKSE
Ki [6]: 7000 nM

Molecule: AEAVPWKSE
Ki [4]: 3600 nM

Molecule: AVP[Phe(4-I)]AQKSE [AVPX10AQKSE]
Ki [8]: 27700 nM | Ki [9]: 450 nM

Molecule: AVPWIGKSE
Ki [6]: 330 nM

Molecule: AVPWGLKSE
Ki [4]: 6900 nM | Ki [5]: 540 nM | Ki [6]: 420 nM

B1: APO2L/TRAIL: pro-apoptotic polypeptide APO2L/TRAIL (Accession Number: TN10_HUMAN) (protein, UniProt P50591 1-281, looked up)
Tumor necrosis factor ligand …: MAMMEVQGGPSLGQTCVLIVIFTVLLQSLCVAVTYVYFTNELKQMQDKYSKSGIACFLKEDDSYWDPNDEESMNSPCWQVKWQLRQLVRKMILRTSEETISTVQEKQQNISPLVRERGPQRVAAHITGTRGRSNTLSSPNSKNEKALGRKINSWESSRSGHSFLSNLHLRNGELVIHEKGFYYIYSQTYFRFQEEIKENTKNDKQMVQYIYKYTSYPDPILLMKSARNSCWSKDAEYGLYSIYQGGIFELKENDRIFVSVTNEHLIDMDHEASFFGAFLVG
effect on established tumor [12]: reduction in size of the tumor
